Measurements: patent US7595313B2, “Nitric oxide donating diuretic compounds, compositions and methods of use” (NicOx, S.A., priority 2005, dated 2009)
Marks after values point to notes of the source that are not given here.

Tests used:
plasma aldosterone = assay: Rat aldosterone inhibition under in vivo conditions (chronic administration via mini-osmotic pumps); conditions: for ALDOSTERONE (pg/ml) DAY 0: Day 0 tail vein blood sample; for ALDOSTERONE (pg/ml) DAY 0 / ALDOSTERONE (pg/ml) Day 29: male Wistar rats, N=8; for ALDOSTERONE (pg/ml) Day 29: terminal plasma day 29 after 28 days s.c. mini-pump, 10 mg/kg/day molar equivalent doses
Method: (§1) The effect of chronic administration of Example 51 and hydrochlorothiazide (HCT) on plasma aldosterone and renin levels was tested in male Wistar rats. Compounds were administered via mini-osmotic pumps implanted subcutaneously in the scapular area of the rats using asceptic techniques. Molar equivalent doses of HCT and Example 51 (10 mg/kg/day) in 50% DMSO/PEG300 were delivered for 28 days via Alzet mini-pumps and compared to vehicle treated animals. A 250 μl blood sample was obtained from tail vein cannulae for analysis of aldosterone and plasma renin levels (Day 0). Terminal plasma was collected on day 29 for analysis of aldosterone and plasma renin levels. Plasma renin and aldosterone were measured utilizing commercially available kits (Cayman Chemical; Ann Arbor, Mich. and Alpha Diagnostics; San Antonio, Tex., respectively).

plasma renin = assay: Rat renin inhibition under in vivo conditions (chronic administration via mini-osmotic pumps); conditions: for RENIN (Relative Units) DAY 0: Day 0 tail vein blood sample; for RENIN (Relative Units) DAY 0 / RENIN (Relative Units) Day 29: male Wistar rats, N=8; for RENIN (Relative Units) Day 29: terminal plasma day 29 after 28 days s.c. mini-pump, 10 mg/kg/day molar equivalent doses
Method: as §1

Male Wistar rats = assay: Determination of the diuresis (urine volume over 6 hours after oral dosing); format: in vivo, rat
How it was run: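 Male Wistar rats (180-200 g) in metabolic cages, fasted 18 h, water withdrawn 90 min before dosing. Compounds in 0.5% Methocel given p.o. at 30 or 3 mg/kg; urine volume collected over 6 h. Mean ±SEM, n=6 or 7.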

[1] = p.o. 3 mg/kg in 0.5% Methocel, male Wistar rats, 6 hours, mean ± SEM, n=6 or 7
[2] = p.o. 30 mg/kg in 0.5% Methocel, male Wistar rats, 6 hours, mean ± SEM, n=6 or 7
[3] = day 29, 10 mg/kg/day for 28 days, result in words

Structure (SMILES) | melting point | Urine collected in 6 hours (mL) (3 mg/kg) (Male Wistar rats; [1]) | further results
NS(=O)(=O)c1cc2c(cc1Cl)NCNS2(=O)=O [HCT, hydrochlorothiazide, reference compound] | – | – | ALDOSTERONE (pg/ml) DAY 0 (plasma aldosterone): 411.5 ± 41.8 pg/mL; ALDOSTERONE (pg/ml) Day 29 (plasma aldosterone): 2081.0 ± 232.1 pg/mL; RENIN (Relative Units) DAY 0 (plasma renin): 5.0 ± 0.6 Relative Units; RENIN (Relative Units) Day 29 (plasma renin): 24.6 ± 1.0 Relative Units
NS(=O)(=O)c1cc2c(cc1Cl)NCN(CC(=O)NCCCO[N+](=O)[O-])S2(=O)=O [Example 34, 2H-1,2,4-Benzothiadiazine-2-acetamide, 7-(aminosulfonyl)-6-chloro-3,4-dihydro-N-[3-(nitrooxy)propyl]-, 1,1-dioxide] | 138 to 141 °C | 2.8 ± 0.3 | –
CN(CCO[N+](=O)[O-])C(=O)CN1CNc2cc(Cl)c(S(N)(=O)=O)cc2S1(=O)=O [Example 38, 2H-1,2,4-Benzothiadiazine-2-acetamide, 7-(aminosulfonyl)-6-chloro-3,4-dihydro-N-methyl-N-[2-(nitrooxy)ethyl]-, 1,1-dioxide] | 160 to 165 °C | 4.5 ± 0.6 | –
NS(=O)(=O)c1cc2c(cc1Cl)NC(CCCC(=O)NC[C@@H](CO[N+](=O)[O-])O[N+](=O)[O-])=NS2(=O)=O [Example 21b, 4H-1,2,4-Benzothiadiazine-3-butanamide, 7-(aminosulfonyl)-N-[(2S)-2,3-bis(nitrooxy)propyl]-6-chloro-, 1,1-dioxide] | 140 °C (dec.) | – | Urine collected in 6 hours (mL) (30 mg/kg) (Male Wistar rats; rat, in vivo, po): 2.7 ± 0.3 mL
NS(=O)(=O)c1cc2c(cc1Cl)NC(CCCC(=O)NCCO[N+](=O)[O-])=NS2(=O)=O [Example 14, 4H-1,2,4-Benzothiadiazine-3-butanamide, 7-(aminosulfonyl)-6-chloro-N-[2-(nitrooxy)ethyl]-, 1,1-dioxide] | 168 to 170 °C | – | Urine collected in 6 hours (mL) (30 mg/kg) (Male Wistar rats; [2]): 4.0 ± 0.4 mL
NS(=O)(=O)c1cc2c(cc1Cl)NCN(CCO[N+](=O)[O-])S2(=O)=O [Example 51, 2H-1,2,4-Benzothiadiazine-7-sulfonamide, 6-chloro-3,4-dihydro-2-[2-(nitrooxy)ethyl]-, 1,1-dioxide] | 161 to 163 °C (dec.) | 8.0 ± 1.1 | ALDOSTERONE (pg/ml) DAY 0 (plasma aldosterone): 540.8 ± 38.9 pg/mL; plasma aldosterone measured on day 29 as compared to vehicle or HCT treated rats (plasma aldosterone; [3]): significantly lowered; ALDOSTERONE (pg/ml) Day 29 (plasma aldosterone): 1326.6 ± 118.7^c pg/ml; RENIN (Relative Units) DAY 0 (plasma renin): 6.1 ± 0.3 Relative Units; plasma renin measured on day 29 as compared to vehicle or HCT treated rats (plasma renin; [3]): significantly lowered; RENIN (Relative Units) Day 29 (plasma renin): 9.5 ± 0.5^a,b Relative Units
CN(CC1Nc2cc(Cl)c(S(N)(=O)=O)cc2S(=O)(=O)N1)C(=O)c1cc(CO[N+](=O)[O-])cc(CO[N+](=O)[O-])c1 (stereo not drawn) [Example 65d, (5-{[{[7-(Aminosulfonyl)-6-chloro-1,1-dioxido-3,4-dihydro-2H-1,2,4-benzothiadiazin-3-yl]methyl}(methyl)amino]carbonyl}-1,3-phenylene)bis(methylene)dinitrate] | 137 °C (dec.) | – | Urine collected in 6 hours (mL) (3 mg/kg) (Male Wistar rats; rat, in vivo, po): 4.6 ± 0.3 mL
NS(=O)(=O)c1cc2c(cc1Cl)NC(CCCC(=O)NC[C@H](CO[N+](=O)[O-])O[N+](=O)[O-])=NS2(=O)=O [Example 11, 4H-1,2,4-Benzothiadiazine-3-butanamide, 7-(aminosulfonyl)-N-[(2R)-2,3-bis(nitrooxy)propyl]-6-chloro-, 1,1-dioxide] | > 220 °C | – | Urine collected in 6 hours (mL) (30 mg/kg) (Male Wistar rats; rat, in vivo, po): 3.7 ± 0.3 mL
NS(=O)(=O)c1cc2c(cc1C(F)(F)F)NC(CCCCCO[N+](=O)[O-])NS2(=O)=O (stereo not drawn) [Example 2, 2H-1,2,4-Benzothiadiazine-7-sulfonamide, 3,4-dihydro-3-[5-(nitrooxy)pentyl]-6-(trifluoromethyl)-, 1,1-dioxide] | 171 to 189 °C | – | Urine collected in 6 hours (mL) (30 mg/kg) (Male Wistar rats; [2]): 5.7 ± 0.7 mL
CC(C)(CO[N+](=O)[O-])C(=O)N1CCC2(CC1)Nc1cc(C(F)(F)F)c(S(N)(=O)=O)cc1S(=O)(=O)N2 [Example 19b, Spiro[2H-1,2,4-benzothiadiazine-3(4H), 4′-piperidine]-7-sulfonamide, 1′-[2,2-dimethyl-3-(nitrooxy)-1-oxopropyl]-6-(trifluoromethyl)-, 1,1-dioxide] | 152 to 156 °C (dec.) | – | Urine collected in 6 hours (mL) (30 mg/kg) (Male Wistar rats; [2]): 2.5 ± 0.4 mL
NS(=O)(=O)c1cc2c(cc1C(F)(F)F)NC(CCC(CO[N+](=O)[O-])O[N+](=O)[O-])NS2(=O)=O (stereo not drawn) [Example 7, 2H-1,2,4-benzothiadiazine-7-sulfonamide, 3-[3,4-bis(nitrooxy)butyl]-3,4-dihydro-6-(trifluoromethyl)-, 1,1-dioxide] | 157 to 160 °C (dec.) | – | Urine collected in 6 hours (mL) (30 mg/kg) (Male Wistar rats; rat, in vivo, po): 5.7 ± 0.4 mL
NS(=O)(=O)c1cc2c(cc1Cl)NC(CCC(CO[N+](=O)[O-])O[N+](=O)[O-])NS2(=O)=O (stereo not drawn) [Example 6b, 2H-1,2,4-Benzothiadiazine-7-sulfonamide, 3-[3,4-bis(nitrooxy)butyl]-6-chloro-3,4-dihydro-, 1,1-dioxide] | 153 to 155 °C | – | Urine collected in 6 hours (mL) (30 mg/kg) (Male Wistar rats; rat, in vivo, po): 6.8 ± 0.5 mL
NS(=O)(=O)c1cc2c(cc1Cl)NCN(CCCCO)S2(=O)=O [Example 41, 2H-1,2,4-Benzothiadiazine-7-sulfonamide, 6-chloro-3,4-dihydro-2-(4-hydroxybutyl)-, 1,1-dioxide] | 96 to 99 °C | 5.5 ± 0.6 | –
CC1(C)CC(CC2Nc3cc(Cl)c(S(N)(=O)=O)cc3S(=O)(=O)N2)CC(C)(C)N1O (stereo not drawn) [Example 77, 2H-1,2,4-Benzothiadiazine-7-sulfonamide, 6-chloro-3,4-dihydro-3-[(1-hydroxy-2,2,6,6-tetramethyl-4-piperidinyl)methyl]-, 1,1-dioxide] | 174 to 176 °C | – | Urine collected in 6 hours (mL) (3 mg/kg) (Male Wistar rats; p.o. 3 mg/kg in 0.5% Methocel, male Wistar rats, 6 hours, mean ± SEM, n=6 or 7, 3 mg/kg): 2.3 ± 0.4 mL
NS(=O)(=O)c1cc2c(cc1Cl)N([N+](=O)[O-])CN(CCO[N+](=O)[O-])S2(=O)=O [Example 52, 2H-1,2,4-Benzothiadiazine-7-sulfonamide, 6-chloro-3,4-dihydro-4-nitro-2-[2-(nitrooxy)ethyl]-, 1,1-dioxide] | 144 °C (dec.) | – | Urine collected in 6 hours (mL) (3 mg/kg) (Male Wistar rats; rat, in vivo, po): 5.7 ± 0.8 mL
NS(=O)(=O)c1cc2c(cc1Cl)NC(CCC(=O)NCCOCCO[N+](=O)[O-])=NS2(=O)=O [Example 13, 4H-1,2,4-Benzothiadiazine-3-propanamide, 7-(aminosulfonyl)-6-chloro-N-[2-[2-(nitrooxy)ethoxy]ethyl]-, 1,1-dioxide] | 175 to 178 °C | – | Urine collected in 6 hours (mL) (30 mg/kg) (Male Wistar rats; [2]): 2.2 ± 0.5 mL
NS(=O)(=O)c1cc2c(cc1Cl)NCN(Cc1cccc(CO[N+](=O)[O-])c1)S2(=O)=O [Example 33, 2H-1,2,4-Benzothiadiazine-7-sulfonamide, 6-chloro-3,4-dihydro-2-[[3-[(nitrooxy)methyl]phenyl]methyl]-, 1,1-dioxide] | 136 to 139 °C (dec.) | 3.0 ± 0.4 | –
NS(=O)(=O)c1cc2c(cc1Cl)NCN(CC[C@H](CO[N+](=O)[O-])O[N+](=O)[O-])S2(=O)=O [Example 73b, 2H-1,2,4-Benzothiadiazine-7-sulfonamide, 2-[(3R)-3,4-bis(nitrooxy)butyl]-6-chloro-3,4-dihydro-, 1,1-dioxide] | 158 to 162 °C | – | Urine collected in 6 hours (mL) (3 mg/kg) (Male Wistar rats; rat, in vivo, po): 3.8 ± 0.5 mL

More lines, main results first:

melting point | Structure (SMILES) | Urine collected in 6 hours (mL) (3 mg/kg) (Male Wistar rats; [1]) | further results
170 to 172 °C | NS(=O)(=O)c1cc2c(cc1Cl)NC(CCCCCO[N+](=O)[O-])=NS2(=O)=O [Example 20c, 4H-1,2,4-Benzothiadiazine-7-sulfonamide, 6-chloro-3-[5-(nitrooxy)pentyl]-, 1,1-dioxide] | – | Urine collected in 6 hours (mL) (30 mg/kg) (Male Wistar rats; [2]): 3.0 ± 0.9 mL
160 to 162 °C (dec.) | NS(=O)(=O)c1cc2c(cc1Cl)NCN(C/C=C/CO[N+](=O)[O-])S2(=O)=O [Example 67b, 2H-1,2,4-Benzothiadiazine-7-sulfonamide, 6-chloro-3,4-dihydro-2-[(2E)-4-(nitrooxy)-2-butenyl]-, 1,1-dioxide] | 6.7 ± 0.6 | –
226 to 228 °C | NS(=O)(=O)c1cc2c(cc1Cl)NCN(CCO)S2(=O)=O [Example 32b, 2H-1,2,4-Benzothiadiazine-7-sulfonamide, 6-chloro-3,4-dihydro-2-(2-hydroxyethyl)-, 1,1-dioxide] | 5.1 ± 0.2 | –
139 to 143 °C | NS(=O)(=O)c1cc2c(cc1Cl)NCN(C(CO)CO)S2(=O)=O [Example 78b, 2H-1,2,4-Benzothiadiazine-7-sulfonamide, 6-chloro-3,4-dihydro-2-[2-hydroxy-1-(hydroxymethyl)ethyl]-, 1,1-dioxide] | 2.7 ± 0.8 | –
235 to 237 °C | Cc1c(CN2CNc3cc(Cl)c(S(N)(=O)=O)cc3S2(=O)=O)no[n+]1[O-] [Example 37c, 2H-1,2,4-Benzothiadiazine-7-sulfonamide, 6-chloro-3,4-dihydro-2-[(4-methyl-5-oxido-1,2,5-oxadiazol-3-yl)methyl]-, 1,1-dioxide] | 2.1 ± 0.6 | –
